Laboratory results taken from US10334851B2, “Herbicidal isoxazolo[5,4-B]pyridines” (BASF SE, priority 2010, dated 2019).

What was measured:
Format in all cases: in vivo
[1] = test system: Abutilon theophrasti; assay: Greenhouse post-emergence treatment of Abutilon theophrasti (velvetleaf); conditions: scale 0 (no damage) to 100 (complete destruction); for pest or weed control at 3000 g/ha: Abutilon theophrasti
From the text: (§1) The seeds of the test plants were sown separately for each species. For the post-emergence treatment, the test plants were first grown to a height of 3 to 15 cm, depending on the plant habit, and only then treated with the active ingredients which had been suspended or emulsified in water. For this purpose, the test plants were either sown directly and grown in the same containers, or they were first grown separately as seedlings and transplanted into the test containers a few days prior to treatment. Depending on the species, the plants were kept at 10-25° C. or 20-35° C. The test period extended over 2 to 4 weeks. During this time, the plants were tended, and their response to the individual treatments was evaluated. Evaluation was carried out using a scale from 0 to 100. 100 means no emergence of the plants, or complete destruction of at least the aerial moieties, and 0 means no damage, or normal course of growth. A good herbicidal activity is given at values of at least 80 and a very good herbicidal activity is given at values of at least 90. The plants used in the greenhouse experiments belonged to the following species: [table]

[2] = test system: Amaranthus retroflexus L.; assay: Greenhouse post-emergence treatment of Amaranthus retroflexus L. (pigweed); conditions: application rate 1.0 kg/ha; for damage: scale 0 to 100
From the text: as §1

[3] = test system: Chenopodium album; assay: Greenhouse post-emergence treatment of Chenopodium album (fat-hen); conditions: application rate 1.0 kg/ha; for damage: scale 0 to 100
From the text: as §1

[4] = scale 0 to 100, read-out: damage

`O=C(O)c1cc(C2CC2)nc2onc(CCCc3cccs3)c12` [I.2.40] showed a pest or weed control at 3000 g/ha ([1]; application rate 3.0 kg/ha) of 100%.
With `COc1ccc(CCc2noc3nc(C4CC4)cc(C(=O)O)c23)cc1` [I.2.42] the damage ([1]; application rate 3.0 kg/ha) was 100%.
Compound `CCCCSC(=O)c1cc(C2CC2)nc2onc(C)c12` [I.1.81] has a damage [2] of 98% and a damage [3] of 98%.
Work on `CC(C)(C)c1noc2nc(C3(F)CC3)cc(C(=O)O)c12` [I.7.64] yielded a pest or weed control at 1000 g/ha [2, 4] of 100% and a pest or weed control at 1000 g/ha [3, 4] of 100%.
For `CCCc1noc2nc(C)cc(C(=O)O)c12` [I.7.39], the damage ([1]; application rate 3.0 kg/ha) was 100%.
`CCCCOc1ccc(-c2noc3nc(C4CC4)cc(C(=O)O)c23)cc1` [I.2.63] was tested, and the damage [2] was 100% and the damage [3] was 100%.
With `Cc1noc2nc(C3CC3)cc(C(=O)OCC(F)F)c12` [I.1.65] the damage [2] was 100% and the damage [3] was 100%.
`O=C(O)c1cc(C2CC2)nc2onc(-c3ccc(Cl)cc3)c12` [I.2.17] gave a damage ([1]; application rate 3.0 kg/ha) of 100%.
With `CCCOc1noc2nc(C3CC3)cc(C(=O)O)c12` [I.2.55] the damage [2] was 100% and the damage [3] was 100%.
For `CCc1cc(C(=O)O)c2c(C)noc2n1` [I.5.4], the pest or weed control at 3000 g/ha ([1]; application rate 3.0 kg/ha) was 85%.
For `Cc1cc(C(=O)O)c2c(-c3ccco3)noc2n1` [I.7.38], the pest or weed control at 3000 g/ha ([1]; application rate 3.0 kg/ha) was 100%.
`O=C(O)c1cc(C2CC2)nc2onc(CC3CCCC3)c12` [I.2.27] gave a pest or weed control at 3000 g/ha ([1]; application rate 3.0 kg/ha) of 100%.
Compound `C=CCOC(=O)c1cc(C2CC2)nc2onc(C)c12` [I.1.62] has a damage ([1]; application rate 2.0 kg/ha) of 100%.
`Cc1cc(C(=O)O)c2c(C3CC3)noc2n1` [I.7.13] showed a pest or weed control at 3000 g/ha ([1]; application rate 3.0 kg/ha) of 100%.
`CSC(=O)c1cc(C2CC2)nc2onc(CC(C)(C)C)c12` [I.4.45] showed a damage [2] of 100%.
Work on `O=C(O)c1cc(C2CC2)nc2onc(-c3ccc(I)cc3)c12` [I.2.43] yielded a damage ([1]; application rate 3.0 kg/ha) of 100%.
Compound `COC(=O)c1cc(C2CC2)nc2onc(C3CCC3)c12` [I.4.4] has a pest or weed control at 3000 g/ha ([1]; application rate 3.0 kg/ha) of 100%.
`COCc1noc2nc(C3CC3)cc(C(=O)O)c12` [I.2.38] showed a damage ([1]; application rate 3.0 kg/ha) of 100%.
Compound `Cc1cc(C(=O)O)c2c(C(C)C)noc2n1` [I.7.10] has a pest or weed control at 3000 g/ha ([1]; application rate 3.0 kg/ha) of 100%.
In the case of `O=C(O)c1cc(C2CC2)nc2onc(C3CCCCC3)c12` [I.2.26], the pest or weed control at 3000 g/ha ([1]; application rate 3.0 kg/ha) is reported as 100%.
With `C=COCCOC(=O)c1cc(C2CC2)nc2onc(C)c12` [I.1.75] the damage ([1]; application rate 3.0 kg/ha) was 100%.
`O=C(O)c1cc(C2CC2)nc2onc(-c3cccc(F)c3)c12` [I.2.31] was tested, and the damage ([1]; application rate 3.0 kg/ha) was 100%.
In the case of `Cc1cc(C(=O)O)c2c(CC(C)(C)C)noc2n1` [I.7.41], the damage ([1]; application rate 3.0 kg/ha) is reported as 100%.
With `O=C(O)c1cc(C2CC2)nc2onc(CCCc3ccccc3)c12` [I.2.37] the damage ([1]; application rate 3.0 kg/ha) was 90%.
Compound `Cc1cc(C(=O)O)c2c(-c3ccccc3)noc2n1` [I.7.31] has a damage ([1]; application rate 3.0 kg/ha) of 98%.
Work on `CC#CCOC(=O)c1cc(C2CC2)nc2onc(C)c12` [I.1.68] yielded a damage ([1]; application rate 3.0 kg/ha) of 100%.
`CC(C)CCc1noc2nc(C3CC3)cc(C(=O)O)c12` [I.2.39] was tested, and the damage ([1]; application rate 3.0 kg/ha) was 100%.
`O=C(O)c1cc(C2CC2)nc2onc(-c3cc(F)cc(F)c3)c12` [I.2.44] was tested, and the damage ([1]; application rate 3.0 kg/ha) was 100%.
`Cc1noc2nc3c(c(C(=O)O)c12)CCC3` [I.8.1] gave a pest or weed control at 3000 g/ha ([1]; application rate 3.0 kg/ha) of 100%.
`O=C(O)c1cc(C2CC2)nc2onc(-c3ccc(C(F)(F)F)cc3)c12` [I.2.18] showed a damage ([1]; application rate 3.0 kg/ha) of 100%.
For `CCCCCc1noc2nc(C3CC3)cc(C(=O)OC)c12` [I.4.25], the damage ([1]; application rate 3.0 kg/ha) was 100%.
`CSC(=O)c1cc(C2CC2)nc2onc(-c3ccc(F)cc3)c12` [I.4.47] gave a damage [2] of 95%.
Compound `COC(=O)c1cc(C2CC2)nc2onc(CCC3CCCCC3)c12` [I.4.27] has a pest or weed control at 3000 g/ha ([1]; application rate 3.0 kg/ha) of 100%.
Work on `O=C(O)c1cc(C2CC2)nc2onc(-c3cccc(Cl)c3)c12` [I.2.24] yielded a damage ([1]; application rate 3.0 kg/ha) of 100%.
In the case of `CCOCCOC(=O)c1cc(C2CC2)nc2onc(C)c12` [I.1.69], the damage ([1]; application rate 3.0 kg/ha) is reported as 100%.
`COc1cccc(-c2noc3nc(C4CC4)cc(C(=O)O)c23)c1` [I.2.22] showed a damage ([1]; application rate 3.0 kg/ha) of 100%.
Work on `CCCCOCCOCCOC(=O)c1cc(C2CC2)nc2onc(C)c12` [I.1.70] yielded a damage ([1]; application rate 3.0 kg/ha) of 100%.
For `COC(=O)c1cc(C2CC2)nc2onc(CCc3ccccc3)c12` [I.4.5], the damage ([1]; application rate 3.0 kg/ha) was 85%.
`O=C(O)c1cc(C2CC2)nc2onc(CCC3CCCCC3)c12` [I.2.30] showed a pest or weed control at 3000 g/ha ([1]; application rate 3.0 kg/ha) of 100%.
`O=C(O)c1cc(C2CC2)nc2onc(-c3cccc(C(F)(F)F)c3)c12` [I.2.21] was tested, and the damage ([1]; application rate 3.0 kg/ha) was 100%.
